For series [1], the system named is E. faecalis ATCC 700802 (VRE). Description: MIC, broth microdilution. Format: cell-based. To be noted: Enterococcus faecalis, 24 h, Fig. 4 heat map, vancomycin-resistant, LB, 0–64 μmol L^−1, 37 °C, one day, OD600, mode of replicates, read-out: Minimal Inhibitory Concentration, E. faecalis ATCC 700802 - VRE (+). The procedure: (§1) Figure 4. […] Briefly, 10[5] bacterial cells were incubated with serially diluted peptides (0–64 μmol L^−1) at 37 °C. Bacterial growth was assessed by measuring the optical density at 600 nm in a microplate reader one day post-treatment.

For the next series, the system named is B. subtilis ATCC 23857. As to the kind of experiment: MIC, broth microdilution. To be noted: Bacillus subtilis, ATCC23857, 24 h, Fig. 4 heat map, LB, 0–64 μmol L^−1, 37 °C, one day, OD600, mode of replicates, read-out: Minimal Inhibitory Concentration, B. subtilis ATCC 23857 (+). Type of series: cell-based. As for the experimental part:
as §1
For orientation: Dilution methods test growth across graded concentrations, often in twofold steps.

A further series deals with P. aeruginosa PA14. Description: microbe, parasite or virus in culture. To be noted: Pseudomonas aeruginosa, PA14, 24 h, read-out: Minimal Inhibitory Concentration, P. aeruginosa PA14 (-). As for the experimental part:
as §1

Another series has as its system P. aeruginosa PAO1. Description: microbe, parasite or virus in culture. To be noted: Pseudomonas aeruginosa, PAO1, 24 h, read-out: Minimal Inhibitory Concentration, P. aeruginosa PAO1 (-). The procedure: as §1
The test system of series [2] is S. aureus ATCC BAA-1556 (MRSA). As to the kind of experiment: microbe, parasite or virus in culture. The settings on record: Staphylococcus aureus, ATCCBAA1556|MRSA, 24 h, read-out: Minimal Inhibitory Concentration, S. aureus ATCC BAA-1556 - MRSA (+). The procedure:
as §1

The next series deals with E. coli K-12 BW25113. As to the kind of experiment: microbe, parasite or virus in culture. The settings on record: Escherichia coli, BW25113, 24 h, read-out: Minimal Inhibitory Concentration, E. coli K-12 BW25113 (-). The procedure:
as §1

In a further series the test system is E. coli ATCC 11775. As to the kind of experiment: microbe, parasite or virus in culture. To be noted: Escherichia coli, ATCC11775, 24 h, read-out: Minimal Inhibitory Concentration, E. coli ATCC 11775 (-). As for the experimental part: as §1
The test system of series [3] is A. baumannii ATCC 19606. As to the kind of experiment: microbe, parasite or virus in culture. The settings on record: Acinetobacter baumannii, ATCC19606, 24 h, read-out: Minimal Inhibitory Concentration, A. baumannii ATCC 19606 (-). The procedure:
as §1

Another series has as its system S. enterica ATCC 9150. As to the kind of experiment: microbe, parasite or virus in culture. The settings on record: Salmonella enterica, ATCC9150, 24 h, read-out: Minimal Inhibitory Concentration, S. enterica ATCC 9150 (-). As for the experimental part: as §1
Series [4] has as its system K. pneumoniae ATCC BAA-2342. As to the kind of experiment: microbe, parasite or virus in culture. The settings on record: Klebsiella pneumoniae, ATCCBAA2342, 24 h, read-out: Minimal Inhibitory Concentration, K. pneumoniae ATCC BAA-2342 (-) - EIRK. As for the experimental part:
as §1

The subject of series [5] is S. enterica Typhimurium ATCC 700720. Description: microbe, parasite or virus in culture. The settings on record: Salmonella enterica, ATCC700720|TYPHIMURIUM, 24 h, read-out: Minimal Inhibitory Concentration, S. enterica Typhimurium ATCC 700720. The procedure:
as §1

In a further series the test system is E. cloacae ATCC 13047. Description: microbe, parasite or virus in culture. The settings on record: Enterobacter cloacae, ATCC13047, 24 h, read-out: Minimal Inhibitory Concentration, E. cloacae ATCC 13047 (-). The procedure: as §1
For another series, the system named is S. aureus ATCC 12600. Description: microbe, parasite or virus in culture. To be noted: Staphylococcus aureus, ATCC12600, 24 h, read-out: Minimal Inhibitory Concentration, S. aureus ATCC 12600 (+). The procedure: as §1
In the next series the test system is E. coli ATCC BAA-3170. Description: microbe, parasite or virus in culture. To be noted: Escherichia coli, ATCCBAA3170, 24 h, read-out: Minimal Inhibitory Concentration, E. coli ATCC BAA-3170 (-) - CRE. As for the experimental part:
as §1

A further series deals with K. pneumoniae ATCC 13883. Description: microbe, parasite or virus in culture. The settings on record: Klebsiella pneumoniae, ATCC13883, 24 h, read-out: Minimal Inhibitory Concentration, K. pneumoniae ATCC 13883 (-). The procedure:
as §1

In series [6] the test system is A. baumannii ATCC BAA-1605. As to the kind of experiment: microbe, parasite or virus in culture. To be noted: Acinetobacter baumannii, ATCCBAA1605, 24 h, read-out: Minimal Inhibitory Concentration, A. baumannii ATCC BAA-1605 (-) - CGTPACCIMRA
As for the experimental part: as §1

In another series the test system is E. coli AIC221. As to the kind of experiment: MIC, broth microdilution. Format: cell-based. To be noted: Escherichia coli, AIC221, 24 h, read-out: Minimal Inhibitory Concentration, E. coli AIC221 (-). The procedure: Figure 4. Antimicrobial activity of APEX-predicted AllTheBacteria peptides. Heat map displaying the antimicrobial activities (μmol L^−1) of ATB peptides (rows) against 20 clinically relevant pathogens (columns) , including antibiotic-resistant strains. Briefly, 10[5] bacterial cells were incubated with serially diluted peptides (0–64 μmol L^−1) at 37 °C. Bacterial growth was assessed by measuring the optical density at 600 nm in a microplate reader one day post-treatment.

A further series deals with E. coli AIC222. As to the kind of experiment: microbe, parasite or virus in culture. The settings on record: Escherichia coli, AIC222, 24 h, read-out: Minimal Inhibitory Concentration, E. coli AIC222 - CRE (-). Type of series: cell-based. As for the experimental part: as §1
Series [7] has as its system human embryonic kidney (HEK293T) cells. The settings on record: 24 h. The procedure:
The cells were cultured in high-glucose Dulbecco’s modified Eagle’s medium supplemented with 1% penicillin and streptomycin (antibiotics) and 10% fetal bovine serum and grown at 37 °C in a humidified atmosphere containing 5% CO2.
One day prior to the experiment, 100 μL aliquots of human embryonic kidney (HEK293T) cells, at a concentration of 50,000 cells per mL, were seeded into each well of 96-well plates (5,000 cells per well). Following cell attachment, the HEK293T cells were treated with increasing concentrations of peptides (ranging from 8 to 128 μmol L^−1) and incubated for 24 h. After the exposure period, cytotoxicity was assessed using the 3-(4,5-dimethylthiazol-2-yl)-2,5-diphenyltetrazolium bromide (MTT) assay. Specifically, the MTT reagent was prepared at a concentration of 0.5 mg mL^−1 in phenol red-free medium and used to replace the peptide-containing supernatants (100 μL per well). The plates were then incubated for 4 h at 37 °C in a humidified atmosphere with 5% CO2, facilitating the formation of insoluble formazan crystals. These crystals were subsequently dissolved in 0.04 mol L^−1 hydrochloric acid prepared in anhydrous isopropanol. Absorbance was measured at 570 nm using a spectrophotometer to quantify cell viability. All experiments were conducted in triplicate (three biological replicates).
To evaluate the safety profile of the ATB peptides, we measured their cytotoxicity against human embryonic kidney (HEK293T) cells using a 3-(4,5-dimethylthiazol-2-yl)-2,5-diphenyltetrazolium bromide (MTT) viability assay and determined half-maximal cytotoxic concentrations (CC50). […]
index as the ratio CC50 (HEK293T) / MIC against A. baumannii ATCC 19606.

The test system of series [8] is 20 clinically relevant Gram-negative and Gram-positive bacterial strains. Description: Antibacterial profiling across the panel. To be noted: in words; 20-strain MIC panel. Format: cell-based. The text has this:
We first compared the predicted AllTheBacteria (here abbreviated ATB) peptides with antimicrobial peptides curated in widely used databases (see Supp. Note 3, Supp. Figs 10-13). ATB peptides were enriched in basic residues, particularly lysine and arginine, and many also contained hydrophobic or aromatic residues, including leucine, isoleucine, and tryptophan. These features are consistent with electrostatic engagement of bacterial envelopes and potential membrane interaction. From this prioritized pool, we selected 24 peptides (Supp. Table 1) for chemical synthesis and experimental validation. The selected panel included highly cationic low-complexity sequences, mixed hydrophobic–cationic architectures and tryptophan-rich motifs, allowing us to test whether distinct classes of ATB-derived encrypted peptides translate into antibacterial activity. The 24 synthesized peptides were profiled against 20 clinically relevant Gram-negative and Gram-positive bacterial strains, including antibiotic-resistant ones (Fig. 4). Antibacterial activity was most pronounced against Gram-negative species, including Acinetobacter baumannii, Escherichia coli, Enterobacter cloacae, Klebsiella pneumoniae, and Pseudomonas aeruginosa.
Figure 4. […] Bacterial growth was assessed by measuring the optical density at 600 nm in a microplate reader one day post-treatment.

For series [9], the system named is A. baumannii ATCC 19606. Description: Skin abscess infection mouse model. Type of series: in vivo, Acinetobacter baumannii. The settings on record: CD-1 mice; for reduction of bacterial burden relative to untreated controls: single topical dose at 10×MIC. The procedure:
(§2) Figure 5. Anti-infective activity of a lead ATB peptide in a murine infection model. […] The limit of detection (LOD) for the CFU quantification is log10 CFU = 2. Bacterial burdens are shown as violin plots with individual data points overlaid; each point represents one animal. The horizontal line within each violin indicates the mean, and violin width reflects the distribution of values within each group. Statistical comparisons were performed separately for each time point using ordinary one-way ANOVA followed by Dunnett’s two-sided multiple comparisons test versus the control group. Exact p-values are shown above the indicated comparisons. (Panel a created in BioRender.)
(§3) The back of six-week-old female CD-1 mice under anesthesia were shaved and injured with a superficial linear skin abrasion made with a needle. An aliquot of A. baumannii ATCC 19606 (1.1×10^6 CFU mL^−1; […]) previously grown in LB medium until 0.5 OD mL^−1 (optical value at 600 nm) and then washed twice with sterile PBS (pH 7.4, 9,391 ģ for 3 min) was added to the scratched area. […] Two- and four-days post-infection, animals were euthanized, and a uniform excision of the scarified skin was excised, homogenized using a bead beater (25 Hz for 20 min), 10-fold serially diluted, and plated on McConkey agar plates for CFU quantification. The experiments were performed using six mice per group. Mice were single-housed to avoid cross-contamination and maintained under a 12-hour light/dark cycle at 22 °C with humidity controlled at 50%. The skin abscess infection mouse model was revised and approved by the University Laboratory Animal Resources (ULAR) from the University of Pennsylvania (Protocol 806763).
In the mouse experiments, all the raw data were log10 transformed and the statistical significance was determined using one-way ANOVA followed by Dunnett’s test. All the p values are shown for each of the groups, all groups were compared to the untreated control group. […] Statistical significance between different groups was calculated using the tests indicated in each figure legend. […]

The nature of series [10]: Mouse weight monitoring in skin abscess model. To be noted: CD-1 mice, 4 days total, single topical dose at 10×MIC, in words. Type of series: in vivo. As for the experimental part: as §2
as §3, with “Mice were single-housed to avoid cross-contamination and maintained under a 12-hour light/dark cycle at 22 °C with humidity controlled at 50%. The skin abscess infection mouse model was revised and approved by the University Laboratory Animal Resources (ULAR) from the University of Pennsylvania (Protocol 806763).” left out

The test system of another series is E. coli isolates. To be noted: strain not named. As for the experimental part: as §1

Values after ≈ are worked out from the molar mass of the structure shown. Ends that are not written are not given here.

In the case of `C[C@H]1COc2c(N3CCN(C)CC3)c(F)cc3c(=O)c(C(=O)O)cn1c23` [Levofloxacin], the MIC in series [1] came to 1 µM (≈ 0.361 µg/mL); in the series on B. subtilis ATCC 23857, 0.1 µM (≈ 0.0361 µg/mL); in the series with P. aeruginosa PA14, 0.5 µM (≈ 0.181 µg/mL); with P. aeruginosa PAO1, 4 µM (≈ 1.45 µg/mL); in series [2], 4 µM (≈ 1.45 µg/mL); with E. coli K-12 BW25113 it was 0.1 µM (≈ 0.0361 µg/mL). Also, the MIC in the series with E. coli ATCC 11775 worked out at 0.1 µM (≈ 0.0361 µg/mL); with A. baumannii ATCC 19606 [3], 0.3 µM (≈ 0.108 µg/mL); with S. enterica ATCC 9150 it was 0.1 µM (≈ 0.0361 µg/mL); in series [4], 0.1 µM (≈ 0.0361 µg/mL); in series [5], 0.5 µM (≈ 0.181 µg/mL); in the series with E. cloacae ATCC 13047 it was 0.1 µM (≈ 0.0361 µg/mL). For the same compound, the MIC in the series on S. aureus ATCC 12600 is 4 µM (≈ 1.45 µg/mL); with E. coli ATCC BAA-3170, 0.1 µM (≈ 0.0361 µg/mL); in the series on K. pneumoniae ATCC 13883 it was 0.1 µM (≈ 0.0361 µg/mL); in series [6], 64 µM (≈ 23.1 µg/mL); with E. coli AIC221, 0.1 µM (≈ 0.0361 µg/mL); with E. coli AIC222 it was 0.1 µM (≈ 0.0361 µg/mL).
“MKKLKIKKLKIKKLKIKKLKIKNLKIKKLKIKNLKI-OH [ATB15]”: the “half-maximal cytotoxic concentration (CC50)” value in series [7] lay in the range of 9 to 12 µM. In series [8], the “antibacterial activity across the panel” value is reported as “limited measurable activity”.
As to “MKLWKIVRFLALSKGAKALRKKPVRKAAASFVKSYALWKYIRRK-OH [ATB20]”, the “time for which proliferation of the infection was inhibited after treatment” value in the series with A. baumannii ATCC 19606 [9] (single dose at 10xMIC post-infection, compared to untreated control) is given as “up to 4 days”. The “reduction of bacterial burden relative to untreated controls” value in the series with A. baumannii ATCC 19606 [9] (day 4, n = 6) is reported as ~ 1.5 log; with A. baumannii ATCC 19606 [9] (two days after infection, n = 6) it was ~ 2 log. For the same compound, in series [10], the mouse body weight entry was “remained stable”.
Regarding “MRRRGWKVRLKRRRGWKVRLMRRRGWKVRLKRRRLVLPVWA-OH [ATB9]”, the “MIC, E. coli” value against E. coli isolates was determined as 4 µM.

These data come from doi:10.1101/2024.03.08.584059, “AllTheBacteria: a community resource empowers biology and discovers novel peptide antibiotics” (bioRxiv, 2026).
